Two molecules from US20240197692A1, “Combination Comprising Everolimus and Amcenestrant” (Sanofi, priority 2021, published 2024) can be followed below.

For series [1], the system named is orthotopic MCF7 human breast cancer cell line xenograft. The series is described as follows: Anti-tumor efficacy against orthotopic MCF7 human breast cancer cell line xenograft in NOD/SCID mice. Particulars: for Tumor volume changes from baseline: Median: amcenestrant 10 mg/kg BID, everolimus 10 mg/kg BIW; for Regressions Complete: animals with complete regression / animals in group; for Regressions Complete / Regressions Partial / Median % of regressions on day 28 / ΔT/ΔC in % at day 28: amcenestrant 10 mg/kg PO BID, everolimus 10 mg/kg PO BIW; for Regressions Partial: animals with partial regression / animals in group; for Biological Interpretation: based on ΔT/ΔC at day 28; for ΔT/ΔC in % at day 28: 28 days. The series is classed as in vivo, female NOD/SCID mice. As for the experimental part:
In the present study, the anti-tumor efficacy of amcenestrant combined with everolimus was investigated after 28 days treatment against an orthotopic MCF7 human breast cancer cell line xenograft in female NOD/SCID mice.
The treated groups included amcenestrant at 10 mg/kg alone, everolimus at 10 mg/kg alone, and the combination of amcenestrant and everolimus at the same dose and regime.
For 28 days, amcenestrant was orally dosed twice a day (BID), and everolimus was orally dosed twice a week (BIW). Anti-tumor efficacy was evaluated by tumor volume measurement.
Female NOD/SCID mice were obtained from GemPharmatech Co., Ltd (Nanjing University National Resource Center for Mutant Mice, Model Animal Research Center) (Nanjing, CHINA). Animals were allowed to acclimate for at least four days before the study enrollment. Mice were 7 to 8 weeks old and weighed between 22.5 and 28.4 grams at the beginning of the treatments. These animals were housed under conditions outlined in the guidelines approved by the Institutional Animal Care and Use Committee (IACUC) of CrownBio following the guidance of the Association for Assessment and Accreditation of Laboratory Animal Care (AAALAC).
MCF7 cells were obtained from the American Type Culture Collection (ATCC® HTB-22™). The MCF7 tumor cells were maintained in vitro with MEM medium supplemented with 10% fetal bovine serum, 0.01 mM non-essential amino acid, 0.01 mg/ml bovine insulin, and 2 mM L-glutamine at 37° C. in an atmosphere of 5% CO2 in air. The cells in exponential growth phase were harvested and quantitated by cell counter before tumor inoculation.
The mouse was subcutaneously implanted with estrogen pellets (0.18 mg/pellet, 17β-estradiol, Innovative Research of America, Sarasota, Florida, USA), hereafter referred to as “E2 supplement”, at the right flank one day before the tumor inoculation. Each mouse was inoculated with MCF-7 tumor cells (2×10 e7) in 0.25 ml of PBS/Matrigel (1:1) mixture at the right mammary fat pad for tumor development.
Everolimus (Manufacturer: Selleck; Lot number: S1120) was formulated in 30% propylene glycol (dissolve first): 5% Tween 80: 65% ddH2O (double distilled water).
Dose volume for amcenestrant and everolimus for oral administration: 10 ml/kg.
Doses: amcenestrant at 10 mg/kg and everolimus at 10 mg/kg in the above volume.
Animal body weight was assessed daily.
Vehicle treated animals were used as controls.
The primary efficacy end points include tumor volume changes from baseline summarized by the ratio of medians of tumor volume changes from baseline between the treated and control groups (ΔT/ΔC). Changes in tumor volume for each treated (T) and control (C) group were calculated for each animal on each day by subtracting the tumor volume on the day of first treatment (staging day) from the tumor volume on the specified observation day. The median ΔT was calculated for the treated group and the median ΔC was calculated for the control group. The ratio ΔT/ΔC was calculated and expressed as percentage: […]
Percent tumor regression is defined as % (percentage) of tumor volume decrease in the treated group on a specified observation day compared to its volume when the study was initiated. At a specific time point (t) and for each animal, the regression percentage was calculated using the following formula: […]
The median percent regression for a group on a given day was then calculated by taking the median of individual % regression values calculated for each animal in the group. The day of calculation was determined by the day when ΔT/ΔC is calculated, except if median percent regression was not representative of the activity of the group. In this case, the day was determined by the first day when the median percent regression was maximal.
A two-way analysis of variance (ANOVA) with factors treatment and day (repeated) was performed on tumor volume changes from baseline.
Background: Xenograft models place foreign cells or tissue in a host animal.

The conditions of series [2]: amcenestrant 10 mg/kg BID, everolimus 10 mg/kg BIW, 28 days.
Protocol: The animals required for experiment (plus extra) were pooled and implanted with MCF7 cells. On day 0 (12 days post implantation), the mice were pooled and randomly distributed to the treatment and control groups (10 mice per group), where median tumor volumes for each group was 119 mm^3. Treatments of amcenestrant and everolimus were initiated on day 1. For 28 days, amcenestrant was orally administered at 10 mg/kg BID (8 hours apart), and everolimus was orally administered at 10 mg/kg BIW. Animal body weight was assessed daily.
The dosages are expressed in mg/kg and based on daily body weight per animal. Vehicle treated animals were used as controls. Mice were checked daily for adverse clinical reactions. Individual mice were weighed daily until the end of the experiment. Mice were euthanized when morbid or weight loss ≥20% was observed. Tumors were measured with a caliper twice weekly until final sacrifice. When a tumor size reached approximately 3000 mm^3 or when there were animal health issues (40% area of a tumor ulcerated), animals were euthanized, and date of death recorded. Solid tumor volumes were estimated from two-dimensional tumor measurements and calculated according to the following equation:
Animal body weight included the tumor weight.

As for `O=C(O)c1ccc2c(c1)CCCC(c1ccc(Cl)cc1Cl)=C2c1ccc(O[C@H]2CCN(CCCF)C2)cc1` [Amcenestrant, 6-(2,4-dichlorophenyl)-5-[4-[(3S)-1-(3-fluoropropyl)pyrrolidin-3-yl]oxyphenyl]-8,9-dihydro-7H-benzo[7]annulene-2-carboxylic acid], the “Tumor volume changes from baseline: Median” value (“Tumor volume changes” for short) in series [1] (Day 4) is 22.0 mm^3; in series [1] (Day 7), 32.5 mm^3; in series [1] (Day 11), 60.0 mm^3; in series [1] (Day 14), 76.5 mm^3; in series [1] (Day 18), 40.0 mm^3; in series [1] (Day 21) it was −2.0 mm^3. Also, the “Tumor volume changes” value in series [1] (Day 25) was −38.0 mm^3; in series [1] (Day 28), −42.0 mm^3. The “Regressions Complete” value in series [1] is recorded as 0/9. Further, the “Regressions Partial” value in series [1] is 8/9. The “Biological Interpretation” value in series [1] is listed as “Very active (ΔT/ΔC<0% is considered as tumor regression (very active))”. Further, the “Median % of regressions on day 28” value in series [1] is listed as −13%. For the same molecule, the “ΔT/ΔC in % at day 28” value in series [1] is −13%. The “Drug-related body weight loss/animal death” value in series [2] was “no drug-related body weight loss/animal death was observed”.

For the molecule `CO[C@H]1C[C@@H]2CC[C@@H](C)[C@@](O)(O2)C(=O)C(=O)N2CCCC[C@H]2C(=O)O[C@H]([C@H](C)C[C@@H]2CC[C@@H](OCCO)[C@H](OC)C2)CC(=O)[C@H](C)/C=C(\C)[C@@H](O)[C@@H](OC)C(=O)[C@H](C)C[C@H](C)/C=C/C=C/C=C/1C` [Everolimus], the “Tumor volume changes” value was 28.5 mm^3 in series [1] (Day 4); 48.0 mm^3 in series [1] (Day 7); 65.0 mm^3 in series [1] (Day 11); 81.5 mm^3 in series [1] (Day 14); 10.0 mm^3 in series [1] (Day 18); −48.0 mm^3 in series [1] (Day 21). For the same molecule, the “Tumor volume changes” value was −47.0 mm^3 in series [1] (Day 25) and −53.0 mm^3 in series [1] (Day 28). In addition, in series [1], the “Regressions Complete” value is on record as 0/6. The “Regressions Partial” value in series [1] was 5/6. Besides, the “Biological Interpretation” value in series [1] is recorded as “Very active (ΔT/ΔC<0% is considered as tumor regression (very active))”. In addition, the “Median % of regressions on day 28” value in series [1] is reported as −17%. The “ΔT/ΔC in % at day 28” value in series [1] is reported as −17%. In addition, in series [2], the “Drug-related body weight loss/animal death” value is “no drug-related body weight loss/animal death was observed”.
